Data as given in ChEMBL document CHEMBL6127111, “First-in-Class Small Molecule Degrader of Pregnane X Receptor Enhances Chemotherapy Efficacy” (J Med Chem, 2024).
Activity calls are given as the source filed them. The calls are words filed in the database; no cut-off is given here.

What was measured:
[1] = target: T1, von Hippel-Lindau disease tumor suppressor/Nuclear receptor subfamily 1 group I member 2 (Homo sapiens, UniProt O75469+P40337); experiment: PROTAC activity at N-terminal PXR/VHL in human SNU-C4 HiBiT-PXR KI cell assessed as reduction in PXR protein level incubated for 24 hrs by Western blot analysis; format: cell-based
[2] = Cytotoxicity against human SNU-C4 HiBiT-PXR KI cell assessed as cell viability at 30 uM incubated for 24 hrs by celltiter-glo luminescent assay relative to control; format: functional; details: read-out: Activity
[3] = Cytotoxicity against human SNU-C4 HiBiT-PXR KI cell assessed as cell viability incubated for 24 hrs by celltiter-glo luminescent assay; format: functional
[4] = Cytotoxicity against human SNU-C4 HiBiT-PXR KI cell assessed as cell viability incubated for 72 hrs by celltiter-glo luminescent assay; format: functional
[5] = Cytotoxicity against human SNU-C4 HiBiT-PXR KI cell assessed as cell viability at 30 uM incubated for 72 hrs by celltiter-glo luminescent assay relative to control; format: functional; details: read-out: Activity
[6] = target: T2, Nuclear receptor subfamily 1 group I member 2 (Homo sapiens, UniProt O75469); experiment: Displacement of BODIPY FL-probe from GST-tagged PXR LBD (unknown origin) incubated for 90 mins by TR-FRET assay
T2 sequence (O75469 whole entry): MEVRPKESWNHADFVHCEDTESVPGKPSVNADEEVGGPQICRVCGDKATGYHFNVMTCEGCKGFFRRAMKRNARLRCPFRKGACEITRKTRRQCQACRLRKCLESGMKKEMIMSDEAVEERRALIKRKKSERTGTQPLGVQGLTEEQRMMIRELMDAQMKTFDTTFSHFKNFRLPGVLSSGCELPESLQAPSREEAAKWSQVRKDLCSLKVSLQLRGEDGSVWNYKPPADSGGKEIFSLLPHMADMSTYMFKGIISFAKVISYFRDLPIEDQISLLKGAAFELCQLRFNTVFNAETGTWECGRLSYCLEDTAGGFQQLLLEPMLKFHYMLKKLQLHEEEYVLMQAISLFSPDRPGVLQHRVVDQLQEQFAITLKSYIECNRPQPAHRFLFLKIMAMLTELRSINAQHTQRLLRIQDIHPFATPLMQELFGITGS

[7] = target: T1, von Hippel-Lindau disease tumor suppressor/Nuclear receptor subfamily 1 group I member 2; experiment: PROTAC activity at N-terminal PXR/VHL in human SNU-C4 HiBiT-PXR KI cell assessed as PXR degradation upto 10 uM incubated at 24 hrs by Western blot analysis; format: cell-based
[8] = target: T1, von Hippel-Lindau disease tumor suppressor/Nuclear receptor subfamily 1 group I member 2; experiment: PROTAC activity at […] PXR/VHL in human SNU-C4 HiBiT-PXR KI cell assessed as PXR degradation incubated at 24 hrs by Western blot analysis; format: cell-based
[9] = target: T1, von Hippel-Lindau disease tumor suppressor/Nuclear receptor subfamily 1 group I member 2; experiment: PROTAC activity at PXR/VHL in human SNU-C4 HiBiT-PXR KI cell assessed as PXR degradation at 1 uM incubated for 8 hrs in presence of methyl (S)-3-(1-(2,5-dimethoxyphenyl)-5-methyl-1H-1,2,3-triazole-4-carboxamido)-4-(hexan-3-yloxy)benzoate by Western blot analysis; format: cell-based
[10] = target: T1, von Hippel-Lindau disease tumor suppressor/Nuclear receptor subfamily 1 group I member 2; experiment: PROTAC activity at PXR/VHL in human SNU-C4 HiBiT-PXR KI cell assessed as PXR degradation at 1 uM incubated for 8 hrs in presence of VH032 by Western blot analysis; format: cell-based
[11] = target: T1, von Hippel-Lindau disease tumor suppressor/Nuclear receptor subfamily 1 group I member 2; experiment: PROTAC activity at PXR/VHL in human SNU-C4 HiBiT-PXR KI cell assessed as PXR degradation at 1 uM incubated for 8 hrs in presence of MG132 by Western blot analysis; format: cell-based
[12] = target: T1, von Hippel-Lindau disease tumor suppressor/Nuclear receptor subfamily 1 group I member 2; experiment: PROTAC activity at PXR/VHL in human SNU-C4 HiBiT-PXR KI cell assessed as PXR degradation at 1 uM incubated for 8 hrs in presence of MLN4924 by Western blot analysis; format: cell-based
[13] = target: von Hippel-Lindau disease tumor suppressor/Nuclear receptor subfamily 1 group I member 3 (Homo sapiens, UniProt Q14994+P40337); experiment: PROTAC activity at CAR/VHL in HEK293T cells assessed as CAR degradation at 0.001 to 100 uM incubated for 24 hrs; format: cell-based; details: dose 0.001-100 µM
[14] = target: von Hippel-Lindau disease tumor suppressor/Vitamin D3 receptor (Homo sapiens) (UniProt P11473+P40337); experiment: PROTAC activity at VDR/VHL in HEK293T cells assessed as VDR degradation at 0.001 to 100 uM incubated for 24 hrs; format: cell-based; details: dose 0.001-100 µM
[15] = target: von Hippel-Lindau disease tumor suppressor/Bile acid receptor (Homo sapiens) (UniProt Q96RI1+P40337); experiment: PROTAC activity at FXR/VHL in HEK293T cells assessed as FXR degradation at 0.001 to 100 uM incubated for 24 hrs; format: cell-based; details: dose 0.001-100 µM
[16] = target: von Hippel-Lindau disease tumor suppressor/Oxysterols receptor LXR-alpha (Homo sapiens) (UniProt Q13133+P40337); experiment: PROTAC activity at LXRalpha/VHL in HEK293T cells assessed as LXRalpha degradation at 0.001 to 100 uM incubated for 24 hrs; format: cell-based; details: dose 0.001-100 µM
[17] = target: von Hippel-Lindau disease tumor suppressor/Oxysterols receptor LXR-beta (Homo sapiens) (UniProt P55055+P40337); experiment: PROTAC activity at LXRbeta/VHL in HEK293T cells assessed as LXRbeta degradation at 0.001 to 100 uM incubated for 24 hrs; format: cell-based; details: dose 0.001-100 µM
[18] = target: T1, von Hippel-Lindau disease tumor suppressor/Nuclear receptor subfamily 1 group I member 2; experiment: PROTAC activity at PXR/VHL in human SNU-C4 HiBiT-PXR KI cell assessed as inhibition of LBD-VCB complex formation at 41.2 nM incubated for 24 hrs by TR-FRET assay; format: cell-based; details: 0.0412 µM
[19] = target: T2, Nuclear receptor subfamily 1 group I member 2; experiment: Inhibition of PXR activation in human HepG2 cells transfected with CYP3A4 incubated for 24 hrs in presence of rifampicin; format: cell-based; details: hepg2, 24 h
[20] = target: T2, Nuclear receptor subfamily 1 group I member 2; experiment: Inhibition of PXR activation in human HepG2 cells transfected with CYP3A4 incubated for 24 hrs in presence of T0901317; format: cell-based; details: hepg2, 24 h
[21] = target: T2, Nuclear receptor subfamily 1 group I member 2; experiment: Inhibition of PXR activation in human HepG2 cells transfected with CYP3A4 incubated for 24 hrs in presence of paclitaxel; format: cell-based; details: hepg2, 24 h
[22] = tested on: HepG2; experiment: Reduction in basal PXR activity on CYP3A4 promoter in human HepG2 cells at 10 uM in absence of PXR agonist; format: functional, cell-based
[23] = target: T2, Nuclear receptor subfamily 1 group I member 2; experiment: Inhibition of PXR activation in human SNU-C4 cells transfected with CYP3A4 at 10 uM incubated for 24 hrs in presence of paclitaxel; format: cell-based; details: snu-c4, 24 h
[24] = tested on: SNU-C4; experiment: Effect on PXR mRNA level in human SNU-C4 cells at 10 uM incubated for 24 hrs in presence of paclitaxel by RT-qPCR analysis; format: functional, cell-based
[25] = tested on: SNU-C4; experiment: Cytotoxicity against human SNU-C4 cells assessed as cell viability incubated for 72 hrs in presence of paclitaxel; format: functional

T1 sequence (P40337 whole entry, one chain of several): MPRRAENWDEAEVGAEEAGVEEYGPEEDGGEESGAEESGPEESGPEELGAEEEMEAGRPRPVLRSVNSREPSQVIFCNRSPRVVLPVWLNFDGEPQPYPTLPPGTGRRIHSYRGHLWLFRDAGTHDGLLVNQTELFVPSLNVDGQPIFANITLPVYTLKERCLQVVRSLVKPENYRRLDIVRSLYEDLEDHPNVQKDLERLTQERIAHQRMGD
Sequence of von Hippel-Lindau disease tumor suppressor/Oxysterols receptor LXR-alpha (Homo sapiens) (P40337 whole entry, looked up): as the sequence (P40337 whole entry, one chain of several) above
Sequence of von Hippel-Lindau disease tumor suppressor/Oxysterols receptor LXR-alpha (Homo sapiens) (Q13133 whole entry, looked up): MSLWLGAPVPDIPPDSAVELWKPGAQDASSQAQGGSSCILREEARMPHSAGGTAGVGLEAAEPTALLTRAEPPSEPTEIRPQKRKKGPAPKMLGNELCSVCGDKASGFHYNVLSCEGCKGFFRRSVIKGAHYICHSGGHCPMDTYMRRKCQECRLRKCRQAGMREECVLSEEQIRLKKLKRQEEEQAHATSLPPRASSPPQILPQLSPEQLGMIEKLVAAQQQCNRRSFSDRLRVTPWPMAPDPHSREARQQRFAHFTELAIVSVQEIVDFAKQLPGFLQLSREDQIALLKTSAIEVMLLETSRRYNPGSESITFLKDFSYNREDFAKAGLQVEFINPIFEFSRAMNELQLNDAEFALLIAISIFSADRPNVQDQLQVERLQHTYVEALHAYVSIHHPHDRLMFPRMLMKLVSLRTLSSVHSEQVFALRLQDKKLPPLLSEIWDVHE
Sequence of von Hippel-Lindau disease tumor suppressor/Bile acid receptor (Homo sapiens) (P40337 whole entry, looked up): as the sequence (P40337 whole entry, one chain of several) above
Sequence of von Hippel-Lindau disease tumor suppressor/Bile acid receptor (Homo sapiens) (Q96RI1 whole entry, looked up): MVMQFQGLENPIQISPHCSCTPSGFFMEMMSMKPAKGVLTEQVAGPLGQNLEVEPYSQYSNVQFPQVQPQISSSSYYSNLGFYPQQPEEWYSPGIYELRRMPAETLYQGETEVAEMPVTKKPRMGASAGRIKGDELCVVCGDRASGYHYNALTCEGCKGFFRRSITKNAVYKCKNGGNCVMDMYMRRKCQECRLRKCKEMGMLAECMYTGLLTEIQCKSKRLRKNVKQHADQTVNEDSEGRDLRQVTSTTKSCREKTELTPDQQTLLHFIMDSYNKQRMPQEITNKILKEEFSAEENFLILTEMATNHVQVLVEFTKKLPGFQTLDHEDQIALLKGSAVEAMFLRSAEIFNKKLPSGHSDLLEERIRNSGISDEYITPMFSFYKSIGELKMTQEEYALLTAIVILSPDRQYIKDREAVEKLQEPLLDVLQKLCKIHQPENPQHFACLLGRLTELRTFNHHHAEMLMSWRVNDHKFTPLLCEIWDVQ
Sequence of von Hippel-Lindau disease tumor suppressor/Oxysterols receptor LXR-beta (Homo sapiens) (P40337 whole entry, looked up, the tested form may be a part): as the sequence (P40337 whole entry, one chain of several) above
Sequence of von Hippel-Lindau disease tumor suppressor/Oxysterols receptor LXR-beta (Homo sapiens) (P55055 whole entry, looked up, the tested form may be a part): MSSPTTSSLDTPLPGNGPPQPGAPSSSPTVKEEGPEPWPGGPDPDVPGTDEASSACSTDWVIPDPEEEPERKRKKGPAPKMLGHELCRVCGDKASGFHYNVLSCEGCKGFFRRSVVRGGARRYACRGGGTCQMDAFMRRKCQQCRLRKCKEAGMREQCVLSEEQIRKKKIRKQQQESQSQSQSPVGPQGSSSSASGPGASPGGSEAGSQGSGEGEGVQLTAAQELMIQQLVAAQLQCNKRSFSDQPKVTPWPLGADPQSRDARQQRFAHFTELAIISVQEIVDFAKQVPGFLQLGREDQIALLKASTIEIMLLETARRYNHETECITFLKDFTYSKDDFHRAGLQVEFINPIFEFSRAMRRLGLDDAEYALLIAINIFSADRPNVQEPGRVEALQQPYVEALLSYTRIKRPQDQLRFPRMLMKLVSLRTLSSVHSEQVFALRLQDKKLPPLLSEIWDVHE
Sequence of von Hippel-Lindau disease tumor suppressor/Nuclear receptor subfamily 1 group I member 3 (Q14994 whole entry): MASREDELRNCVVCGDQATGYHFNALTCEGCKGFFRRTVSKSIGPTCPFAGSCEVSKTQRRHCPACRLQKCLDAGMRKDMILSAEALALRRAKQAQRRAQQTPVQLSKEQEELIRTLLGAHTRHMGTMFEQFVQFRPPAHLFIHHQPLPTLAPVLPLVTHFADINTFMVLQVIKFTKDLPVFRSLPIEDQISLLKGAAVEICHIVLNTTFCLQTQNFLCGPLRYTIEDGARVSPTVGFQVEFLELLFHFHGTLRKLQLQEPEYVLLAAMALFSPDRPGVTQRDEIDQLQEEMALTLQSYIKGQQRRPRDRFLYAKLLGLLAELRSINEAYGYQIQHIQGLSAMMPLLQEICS
Sequence of von Hippel-Lindau disease tumor suppressor/Nuclear receptor subfamily 1 group I member 3 (P40337 whole entry): as the sequence (P40337 whole entry, one chain of several) above
Sequence of von Hippel-Lindau disease tumor suppressor/Vitamin D3 receptor (Homo sapiens) (P11473 whole entry, looked up): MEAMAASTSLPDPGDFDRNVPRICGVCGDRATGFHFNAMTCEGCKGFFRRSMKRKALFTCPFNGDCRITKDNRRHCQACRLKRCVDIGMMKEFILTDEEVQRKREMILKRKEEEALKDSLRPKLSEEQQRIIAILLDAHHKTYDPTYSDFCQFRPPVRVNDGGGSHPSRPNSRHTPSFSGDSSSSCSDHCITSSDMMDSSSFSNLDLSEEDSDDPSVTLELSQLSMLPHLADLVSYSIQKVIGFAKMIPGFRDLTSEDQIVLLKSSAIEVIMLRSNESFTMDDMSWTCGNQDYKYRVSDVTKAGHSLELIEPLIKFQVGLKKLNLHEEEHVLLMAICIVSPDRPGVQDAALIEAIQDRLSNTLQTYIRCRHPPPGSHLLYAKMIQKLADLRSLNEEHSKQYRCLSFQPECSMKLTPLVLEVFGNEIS
Sequence of von Hippel-Lindau disease tumor suppressor/Vitamin D3 receptor (Homo sapiens) (P40337 whole entry, looked up): as the sequence (P40337 whole entry, one chain of several) above

SMILES	viability at 30 µM [2] [%]	CC50 [3] [µM]	CC50 [4] [µM]	viability at 30 µM [5] [%]	Activity [7]	Activity [9]	Activity [10]	Activity [11]	Activity [12]	Activity [13]	Activity [14]	Activity [15]	Activity [16]	Activity [17]	also measured
CCC[C@H](CC)Oc1ccc(C(=O)OC)cc1NC(=O)c1nnn(-c2cc(OC)ccc2OC)c1C	95.6	> 30	> 30	94.9	–	–	–	–	–	–	–	–	–	–	DC50 [1]: > 30 µM; Activity [6]: Active
CCC[C@H](CC)Oc1ccc(C(C)(C)C)cc1NC(=O)c1nnn(-c2cc(OC)c(OCCCCCCOCCOCC(=O)N[C@H](C(=O)N3C[C@H](O)C[C@H]3C(=O)NCc3ccc(-c4scnc4C)cc3)C(C)(C)C)cc2OC)c1C	97.4	> 30	> 30	99.5	Active	Not Active	Not Active	Not Active	Not Active	Not Active	inactive	inactive	inactive	inactive	DC50 [8]: 0.0531 µM
CC(=O)N[C@H](C(=O)N1C[C@@H](O)C[C@H]1C(=O)NCc1ccc(-c2scnc2C)cc1)C(C)(C)C	–	–	–	–	–	–	–	–	–	–	–	–	–	–	Activity [18]: Not Active
CCC[C@H](CC)Oc1ccc(C(=O)OC)cc1NC(=O)c1nnn(-c2cc(OC)c(OCCCCCCOCCOCC(=O)N[C@H](C(=O)N3C[C@H](O)C[C@H]3C(=O)NCc3ccc(-c4scnc4C)cc3)C(C)(C)C)cc2OC)c1C	102	> 30	> 30	105	Active	Not Active	Not Active	Not Active	Not Active	Not Active	inactive	inactive	inactive	inactive	inhibition (INH) [19]: Active; inhibition (INH) [20]: Active; inhibition (INH) [21]: Active; Activity [22]: Active; inhibition (INH) [23]: Active; Activity [24]: inactive; CC50 [25]: 9.53 µM
